According to patent EP4574817A1 (LoQus23 Therapeutics Limited, priority 2023, dated 2025):

Assays:
[1] = biological target: T1, MutSβ (Homo sapiens, UniProt P20585+P43246); experiment: MutSβ ADP Glo Assay; type: biochemical; details: 20nM MutSβ, 30nM CAG DNA, 25 µM ATP, 2 hours at room temperature
T1 construct: purchased AMRI
Experimental: Biological Example A - MutSβ Assay
• MutSβ (supplied by AMRI) stored at -70°C • ADP Glo Kinase Assay Kit (Promega: V9102) stored at -20°C • ATP (supplied within the ADP Glo Kit) stored at -20°C • 1M KCI (Sigma Aldrich: P9333) stored at 2-8°C • 1 M HEPES pH 7.5 (Gibco: M15630-080) stored at 2-8°C • 1M MgCl2 (Sigma Aldrich: M1028-100mL) stored at 2-8°C • Tween-20 (Sigma Aldrich: P1379) (10% solution) stored at 2-8°C • 500mM DTT (Sigma Aldrich: 10197777001) stored at -20°C • CAG loop DNA for MutSβ (made in house) stored at -20°C • MilliQ water stored at room temperature
• 1. Prepare the buffer fresh each day • 2. Take the enzyme from the freezer, thaw in room temperature water and centrifuge at 13,000 rpm for 10 minutes at 2-8C, then make up enzyme and ATP stocks • 3. Quality Control the multidrop head to a %CV of <2% • 4. Add 3µL of 33.34nM MutSβ and 50.01nM CAG looped DNA solution […] to each well in columns 1 and 3-23 of the plate • 5. Pre-incubate the MutSβ and buffer mix for 10 minutes with the compounds • 6. Wash the multidrop head through with MilliQ water (for at least 30 seconds) • 7. Add 3µL of MutSβ Assay buffer (without enzyme) to columns 2 and 24 for the vehicle controls • 8. Wash the multidrop head through with MilliQ water (for at least 30 seconds) • 9. Add 2µL of 62.5µM ATP to each well of the whole plate, then wash with MilliQ water (for a minimum of 30 seconds) • 10. Centrifuge plate for 1 minute at 1000 rpm • 11. Incubate for 2 hours at room temperature • 12. Add 5µL of ADP Glo reagent to each well of the whole plate and wash the multidrop head with MilliQ water (for a minimum of 30 seconds) • 13. Incubate for 40 minutes at room temperature (minimum requirement) • 14. Add 10µL of Kinase Detection Reagent to each well of the whole plate • 15. Wash the multidrop head with MilliQ water more than 1 minute and then dry • 16. Remove the head and put the cover back on for overnight storage • 17. Incubate for 30 minutes at room temperature (minimum requirement) • 18. Read on a microplate reader

[2] = tested on: U20S-IC6 cells; experiment: Lo-Q platform assay (CAG repeat expansion in a clonal cell line with tetracycline-regulated exon 1 HTT ~100 CAG / nanoluc); type: cell-based; details: 336 h, 2-week assay with tetracycline pulsing, read-out: Minimum effective concentration (MEC)
Text: The cell line that was used in the assay below was generated as follows:
The pcDNA™4/TO vector contains two tetracycline operator 2 (TetO2) sites within the human cytomegalovirus immediate-early (CMV) promoter for tetracycline regulated expression of your gene of interest (Yao et al., 1998). The TetO2 sequences serve as binding sites for four Tet repressor molecules (comprising two Tet repressor homodimers) and confer tetracycline-responsiveness to the gene of interest. In the absence of tetracycline, expression of your gene of interest is repressed by the binding of Tet repressor homodimers to the TetO2 sequences. Addition of tetracycline to the cells de-represses the hybrid CMV/TetO2 promoter in pcDNA™4/TO and allows expression of your gene of interest. The pcDNA™6/TR regulatory plasmid is designed for use with the T-REx™ System for tetracycline-regulated expression of the gene of interest in mammalian cells. (www.lifetechnologies.com).
The expression sequence comprises exon 1 huntingtin with ~100 pure CAG repeats, a P2A self-cleaving peptide and a nanoluc sequence followed by a polyA signal. Full plasmid sequence is indicated (Seq ID NO:3). The plasmid contains sequences for ampicillin (bacterial propagation) and zeocin (mammalian cell lines) resistance.
The U-2 OS cell line (purchased from LGC standards, ATCC) is derived from a moderately differentiated sarcoma from the tibia of an adolescent person. Karyotyping has shown that although there are a lot of chromosomal abnormalities the tumour suppressor genes p53 and pRb are still fully functional in the U2OS cell line.
Routine culture of the adherent cells in non-PDL plastic ware in a humidified 37°C incubator with 5% CO2. Cells were maintained in McCoy's 5A (modified) medium with GlutaMAX supplement (Life Technologies 3660-021) and tetracycline-free FBS (Clontech 631106). Maintenance medium for the clonal cell lines expressing Tet repressor and exon 1 HTT/nanoluc constructs were additionally supplemented with zeocin to 100 ug/ml and blasticidin to 1.25 ug/ml. Cells were passaged at 70-80% confluence once or twice a week, either to a split ratio or defined seeding density using DPBS and TrypLE express enzyme (1x, no phenol red, Life technologies 12604-039) was used to dissociate the cells. Cells were frozen with Cell Banker (AMSBIO 11891) or with medium plus 10% DMSO and stored in liquid nitrogen vapour phase.
Stable, clonal cell lines (e.g. 1C6) are leveraged either identify potential druggable targets, and to assess the effectiveness of therapeutic compounds against a Huntington's disease, by way of quantifying CAG repeats expansion rates.
• Place a vial of the cell line U20S-IC6 (1-2×10^6 cells/mL), produced as described above, in a water bath at 37°C for 30 s. Once thawed, quickly transfer the cells into a 15 mL falcon tube containing 9 mL of McCoys 5A media, supplemented with 10% Tet-free FBS. • Pellet the cells by centrifugation at 300 x g for 5 m and discard the supernatant. • Resuspend the cell pellet in 10 mL fresh media and transfer to a sterile T75 culture flask. • Inspect the culture after 24 h and maintain the cells below 80% confluency, typically passaging every 3-4 days.
The Lo-Q platform has been optimised to run as a 2-week assay, following the standard processes detailed in the schematic in Figure 1A.
• Cell seeding for Lo-Q platform assays should be initiated on Mondays (am) to ensure Tetracycline pulsing can be maintained every other day. • The Friday prior to initiating any Lo-Q platform assay ensure there are sufficient cells in culture to seed the required number of assay plates. If required, passage the cells, otherwise perform a media change to McCoys 5A, 10% Tet-free FBS, 1.25 µg/mL Blasticidin®, and 100 µg/mL Zeocin®. • On the Monday morning, aspirate the media from the required number of culture flasks containing U20S-IC6 cells and wash with 2 mL PBS. • Aspirate the PBS and add 2 mL 0.25% Trypsin EDTA. […]

T1 sequence (P43246 whole entry): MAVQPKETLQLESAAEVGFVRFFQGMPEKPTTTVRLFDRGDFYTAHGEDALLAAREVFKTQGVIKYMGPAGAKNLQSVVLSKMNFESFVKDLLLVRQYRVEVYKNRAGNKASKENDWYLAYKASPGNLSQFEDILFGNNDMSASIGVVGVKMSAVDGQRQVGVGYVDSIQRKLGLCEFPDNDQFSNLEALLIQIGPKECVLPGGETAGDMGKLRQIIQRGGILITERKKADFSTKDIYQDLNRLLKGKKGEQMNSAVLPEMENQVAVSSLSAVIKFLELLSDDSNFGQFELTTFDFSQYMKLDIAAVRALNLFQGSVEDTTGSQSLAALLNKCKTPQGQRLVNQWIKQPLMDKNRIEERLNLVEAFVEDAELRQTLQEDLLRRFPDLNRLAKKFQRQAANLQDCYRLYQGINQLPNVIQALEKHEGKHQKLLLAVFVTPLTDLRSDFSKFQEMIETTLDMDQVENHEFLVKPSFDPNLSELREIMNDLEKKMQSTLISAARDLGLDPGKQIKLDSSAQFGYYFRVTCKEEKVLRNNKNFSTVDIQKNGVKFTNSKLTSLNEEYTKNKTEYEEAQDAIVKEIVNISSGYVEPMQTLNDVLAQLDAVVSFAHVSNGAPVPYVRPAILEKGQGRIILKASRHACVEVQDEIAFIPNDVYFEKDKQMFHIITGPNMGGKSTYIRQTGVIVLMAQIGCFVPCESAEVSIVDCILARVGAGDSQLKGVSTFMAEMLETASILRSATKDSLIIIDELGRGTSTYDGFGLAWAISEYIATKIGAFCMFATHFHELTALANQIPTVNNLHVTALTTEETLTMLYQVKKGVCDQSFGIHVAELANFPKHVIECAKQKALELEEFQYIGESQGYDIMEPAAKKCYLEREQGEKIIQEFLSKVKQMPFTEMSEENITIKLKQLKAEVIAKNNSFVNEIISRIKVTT
T1 sequence (P20585 whole entry): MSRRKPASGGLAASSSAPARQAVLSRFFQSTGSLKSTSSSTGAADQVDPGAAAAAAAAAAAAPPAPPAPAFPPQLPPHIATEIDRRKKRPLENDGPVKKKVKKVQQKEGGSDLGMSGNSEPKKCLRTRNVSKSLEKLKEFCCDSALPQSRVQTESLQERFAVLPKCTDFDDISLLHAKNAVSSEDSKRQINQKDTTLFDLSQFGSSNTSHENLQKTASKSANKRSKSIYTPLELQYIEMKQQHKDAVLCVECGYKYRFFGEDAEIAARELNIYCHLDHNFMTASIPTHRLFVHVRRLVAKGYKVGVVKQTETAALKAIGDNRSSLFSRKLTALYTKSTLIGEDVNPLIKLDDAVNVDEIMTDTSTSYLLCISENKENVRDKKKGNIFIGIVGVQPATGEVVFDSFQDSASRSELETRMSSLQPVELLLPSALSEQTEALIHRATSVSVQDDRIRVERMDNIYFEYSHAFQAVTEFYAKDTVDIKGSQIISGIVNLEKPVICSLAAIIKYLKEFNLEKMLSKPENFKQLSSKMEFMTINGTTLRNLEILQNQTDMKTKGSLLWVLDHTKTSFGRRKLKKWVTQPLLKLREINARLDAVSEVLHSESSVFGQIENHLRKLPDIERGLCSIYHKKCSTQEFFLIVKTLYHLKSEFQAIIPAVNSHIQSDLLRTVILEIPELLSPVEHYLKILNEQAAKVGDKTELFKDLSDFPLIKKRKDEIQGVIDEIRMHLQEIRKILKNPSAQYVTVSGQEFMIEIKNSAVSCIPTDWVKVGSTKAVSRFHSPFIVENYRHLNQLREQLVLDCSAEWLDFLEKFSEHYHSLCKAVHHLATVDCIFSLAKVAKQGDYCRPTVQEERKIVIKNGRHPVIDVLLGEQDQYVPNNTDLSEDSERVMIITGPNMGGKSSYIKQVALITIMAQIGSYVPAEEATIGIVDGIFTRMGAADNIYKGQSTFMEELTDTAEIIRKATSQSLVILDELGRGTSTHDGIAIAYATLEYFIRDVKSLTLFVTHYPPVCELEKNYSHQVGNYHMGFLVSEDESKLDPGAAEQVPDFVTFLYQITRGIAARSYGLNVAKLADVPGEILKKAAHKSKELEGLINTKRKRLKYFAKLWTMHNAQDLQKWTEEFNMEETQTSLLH

Q: Which results are given for `CNS(=O)(=O)OCC(=O)N(C)c1nc(C)c(Cc2cccc(Cl)c2)s1` [Example 1, 2-((5-(3-chlorobenzyl)-4-methylthiazol-2-yl)(methyl)amino)-2-oxoethyl methylsulfamate]?
A: IC50 [1]: ≤ 500 nM; minimal effective concentration [2]: ≤ 0.1 µM

Q: For `CNS(=O)(=O)OCC(=O)Nc1nc(C)c(Cc2cccc(Br)c2)s1` [Example 10, 2-((5-(3-bromobenzyl)-4-methylthiazol-2-yl)amino)-2-oxoethyl methylsulfamate], which IC50 [1] is on record?
A: The IC50 was no more than 500 nM.

Q: And the minimal effective concentration [2]?
A: Its minimal effective concentration is 0.1 to 0.5 µM.

Q: How did the IC50 [1] turn out when `CNS(=O)(=O)OCC(=O)Nc1nc(C)c(Cc2ccc(Cl)c(Cl)c2)s1` [Example 12, 2-((5-(3,4-dichlorobenzyl)-4-methylthiazol-2-yl)amino)-2-oxoethyl methylsulfamate] was run?
A: Its IC50 is no more than 500 nM.

Q: What about the minimal effective concentration [2] of the same compound?
A: Its minimal effective concentration is 0.5 to 1 µM.

Q: How did the IC50 [1] turn out when `CNS(=O)(=O)OCC(=O)Nc1nc(C)c(Cc2ccc(F)c(F)c2)s1` [Example 14, 2-((5-(3,4-difluorobenzyl)-4-methylthiazol-2-yl)amino)-2-oxoethyl methylsulfamate] was run?
A: Its IC50 is 1000 to 10000 nM.

Q: What about the minimal effective concentration [2] of the same compound?
A: Its minimal effective concentration is 0.1 to 0.5 µM.

Q: `CCNS(=O)(=O)OCC(=O)Nc1nc(C)c(Cc2ccc(C)cc2)s1` [Example 15, 2-((4-methyl-5-(4-methylbenzyl)thiazol-2-yl)amino)-2-oxoethyl ethylsulfamate] was tested. Which IC50 [1] did it give?
A: Its IC50 is 1000 to 10000 nM.

Q: What about the minimal effective concentration [2] of the same compound?
A: Its minimal effective concentration is 0.5 to 1 µM.

Q: Which results are given for `CNS(=O)(=O)OCC(=O)Nc1nc(C)c(Cc2cccc(Cl)c2)s1` [Example 19, 2-((5-(3-chlorobenzyl)-4-methylthiazol-2-yl)amino)-2-oxoethyl methylsulfamate]?
A: IC50 [1]: 500 to 1000 nM; minimal effective concentration [2]: ≤ 0.1 µM

Q: For `CNS(=O)(=O)OCC(=O)Nc1nc(C)c(Cc2cccc(F)c2)s1` [Example 27, 2-((5-(3-fluorobenzyl)-4-methylthiazol-2-yl)amino)-2-oxoethyl methylsulfamate], which IC50 [1] is on record?
A: The IC50 was 1000 to 10000 nM.

Q: And the minimal effective concentration [2]?
A: The minimal effective concentration was 0.1 to 0.5 µM.

Q: What does the source list for `CCN(C)S(=O)(=O)OCC(=O)Nc1nc(C)c(Cc2ccc(C)cc2)s1` [Example 39, 2-((4-methyl-5-(4-methylbenzyl)thiazol-2-yl)amino)-2-oxoethyl ethyl(methyl)sulfamate]?
A: IC50 [1]: 1000 to 10000 nM; minimal effective concentration [2]: 1 to 5 µM

Q: What does the source list for `CCNS(=O)(=O)OCC(=O)Nc1nc(C)c(Cc2cccc(Cl)c2)s1` [Example 46, 2-((5-(3-chlorobenzyl)-4-methylthiazol-2-yl)amino)-2-oxoethyl ethylsulfamate]?
A: IC50 [1]: ≤ 500 nM; minimal effective concentration [2]: ≤ 0.1 µM

Q: `CNS(=O)(=O)OCC(=O)Nc1nc(COC2CCN(C)CC2)c(Cc2cccc(Cl)c2)s1` [Example 50, 2-((5-(3-chlorobenzyl)-4-(((1-methylpiperidin-4-yl)oxy)methyl)thiazol-2-yl)amino)-2-oxoethyl methylsulfamate] was tested. Which IC50 [1] did it give?
A: Its IC50 is 10000 to 50000 nM.

Q: How did the IC50 [1] turn out when `CNS(=O)(=O)OCC(=O)Nc1nc(CO)c(Cc2ccc(C)cc2)s1` [Example 51, 2-((4-(hydroxymethyl)-5-(4-methylbenzyl)thiazol-2-yl)amino)-2-oxoethyl methylsulfamate] was run?
A: Its IC50 is 10000 to 50000 nM.

Q: Which IC50 [1] does the source give for `CNS(=O)(=O)OCC(=O)Nc1nc(C)c(C(C)(C)c2cccc(Cl)c2)s1` [Example 52, 2-((5-(2-(3-chlorophenyl)propan-2-yl)-4-methylthiazol-2-yl)amino)-2-oxoethyl methylsulfamate] here?
A: Its IC50 is 10000 to 50000 nM.

Q: `CNS(=O)(=O)OCC(=O)Nc1nc(C)c(Cc2cccc(Cl)c2F)s1` [Example 53, 2-((5-(3-chloro-2-fluorobenzyl)-4-methylthiazol-2-yl)amino)-2-oxoethyl methylsulfamate] was tested. Which IC50 [1] did it give?
A: Its IC50 is 1000 to 10000 nM.

Q: For `CNS(=O)(=O)OCC(=O)Nc1nc(C)c(Cc2cc(F)cc(Cl)c2)s1` [Example 54, 2-((5-(3-chloro-5-fluorobenzyl)-4-methylthiazol-2-yl)amino)-2-oxoethyl methylsulfamate], which IC50 [1] is on record?
A: Its IC50 is 1000 to 10000 nM.

Q: Which IC50 [1] does the source give for `CNS(=O)(=O)OCC(=O)Nc1nc(C)c(Cc2cc(Cl)ccc2F)s1` [Example 55, 2-((5-(5-chloro-2-fluorobenzyl)-4-methylthiazol-2-yl)amino)-2-oxoethyl methylsulfamate] here?
A: The IC50 was 1000 to 10000 nM.

Q: For `CNS(=O)(=O)OCC(=O)Nc1nc(C=O)c(Cc2cccc(Cl)c2)s1` [Example 56, 2-((5-(3-chlorobenzyl)-4-formylthiazol-2-yl)amino)-2-oxoethyl methylsulfamate], which IC50 [1] is on record?
A: The IC50 was 1000 to 10000 nM.

Q: How did the IC50 [1] turn out when `CCN(C(=O)COS(=O)(=O)NC)c1nc(C)c(Cc2cccc(Cl)c2)s1` [Example 57, 2-((5-(3-chlorobenzyl)-4-methylthiazol-2-yl)(ethyl)amino)-2-oxoethyl methylsulfamate] was run?
A: The IC50 was 500 to 1000 nM.

Q: With `CNS(=O)(=O)OCC(=O)Nc1nc(CN2CCOCC2)c(Cc2cccc(Cl)c2)s1` [Example 58, 2-((5-(3-chlorobenzyl)-4-(morpholinomethyl)thiazol-2-yl)amino)-2-oxoethyl methylsulfamate] as the compound, how does the IC50 [1] read?
A: The IC50 was 10000 to 50000 nM.

Q: How did the IC50 [1] turn out when `CNS(=O)(=O)OCC(=O)N(C)c1nc(C)c(Cc2ccc(Cl)c(Cl)c2)s1` [Example 59, 2-((5-(3,4-dichlorobenzyl)-4-methylthiazol-2-yl)(methyl)amino)-2-oxoethyl methylsulfamate] was run?
A: Its IC50 is no more than 500 nM.

Q: Which IC50 [1] does the source give for `CNC(=O)OCc1nc(NC(=O)COS(=O)(=O)NC)sc1Cc1cccc(Cl)c1` [Example 60, 2-((5-(3-chlorobenzyl)-4-(((methylcarbamoyl)oxy)methyl)thiazol-2-yl)amino)-2-oxoethyl methylsulfamate] here?
A: The IC50 was 1000 to 10000 nM.

Q: How did the IC50 [1] turn out when `CNS(=O)(=O)OCC(=O)Nc1nc(C)c(Oc2cccc(Cl)c2)s1` [Example 61, 2-((5-(3-chlorophenoxy)-4-methylthiazol-2-yl)amino)-2-oxoethyl methylsulfamate] was run?
A: Its IC50 is 500 to 1000 nM.

Q: How did the IC50 [1] turn out when `CNS(=O)(=O)OCC(=O)Nc1nc2c(s1)C(c1cccc(Cl)c1)CCC2` (stereo not shown) [Example 62, 2-((7-(3-chlorophenyl)-4,5,6,7-tetrahydrobenzo[d]thiazol-2-yl)amino)-2-oxoethyl methylsulfamate] was run?
A: The IC50 was no more than 500 nM.
